The source of these data is patent publication EP1494749B1, “PROCESS FOR PREPARATION OF PHARMACEUTICAL COMPOSITION CONTAINING ANTIRETROVIRAL PROTEASE INHIBITOR WITH IMPROVED BIOAVAILABILITY” (Cadila Pharmaceuticals Limited, priority 2002, dated 2003).

One series in a line: clinical. Conditions: human, in vivo. Here is the method:
2. Kit In a further aspect, the present invention provides a kit comprising one or more pharmaceutically acceptable doses of an antiretroviral protease inhibitor as defined above and one or more pharmaceutically acceptable doses of piperine or an isomer thereof. […] However, the scope of this invention is not limited by them. […] Nelfinavir i) Two tablets each containing 250 mg of Nelfinavir and a tablet containing 20 mg of piperine. ii) Two tablets each containing 250 mg of Nelfinavir and two tablets each containing 15 mg of piperine. Saquinavir i) Three capsules each containing 200 mg of Saquinavir and three tablets each containing 5 mg of piperine. ii) Four capsules each containing 200 mg of Saquinavir and a tablets containing 20 mg of piperine. 3. The following are Examples of excipients (i.e. other than piperine) which can be used to prepare pharmaceutical compositions of the present invention. However, the scope of this invention is not limited by them. Saquinavir : • Capsule: medium chain mono- and diglycerides, povidone and dl-alpha tocopherol. […] 4. […] However, the scope of this invention is not limited by them. […] 5.

The conditions of series [1]: in vivo; cited from earlier work.

In general, Tmax refers to the time at which the peak concentration occurs.

`CC(C)(C)NC(=O)[C@@H]1CN(Cc2cccnc2)CCN1C[C@@H](O)C[C@@H](Cc1ccccc1)C(=O)N[C@H]1c2ccccc2C[C@H]1O` [Indinavir]: the Tmax in “clinical” was found to be 1.58 h. Further, the “reduction in AUC” value in series [1] is 77% ± 8%.
